Source: ChEMBL document CHEMBL1201862, “PubChem BioAssay data set” (2004)
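Cultured in 96-well plates, cells were exposed to test compound for 48 hours across five concentrations. The concentration for 50% growth inhibition is given as GI50.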 The source made the active and inactive calls. No stated cut-off is given here; in the data, active = GI50 up to about 1.1 µM and inactive = higher.

Key:
Experiment in all cases: growth of human tumour cells (NCI), 48 h
[1] = system: BT-549
[2] = system: DMS-273
[3] = system: XF498
[4] = system: RXF 631
[5] = system: DMS-114
[6] = system: Hs-578T
[7] = system: HOP-18
[8] = system: T47D
[9] = system: DU-145

For COc1cc2nncc(SCc3ccc(Cl)c(Cl)c3)c2cc1OC, the GI50 [1] was > 100 µM (inactive), the GI50 [2] was > 100 µM (inactive) and the GI50 [3] was 21.5 µM (inactive). For the same molecule, the GI50 [4] was 72.1 µM (inactive), the GI50 [5] was > 100 µM (inactive) and the GI50 [6] was 80 µM (inactive). For the same molecule, the GI50 [7] was > 100 µM (inactive), the GI50 [8] was 34 µM (inactive) and the GI50 [9] was > 100 µM (inactive).
With COc1cc([C@@H]2c3cc4c(cc3[C@@H](NC(=O)c3ccc(C(C)=O)cc3)C3COC(=O)[C@@H]32)OCO4)cc(OC)c1O (some centres not stated) the GI50 [2] was 0.0556 µM (active), the GI50 [3] was 0.347 µM (active) and the GI50 [4] was 1.24 µM (inactive). For the same molecule, the GI50 [5] was 0.659 µM (active) and the GI50 [7] was > 100 µM (inactive).
In the case of COc1ccc(OC(C(=O)O)C(C)C)c2c1CCCC2=O (configuration not stated), the GI50 [2] is reported as > 100 µM (inactive), the GI50 [3] is reported as > 100 µM (inactive) and the GI50 [4] is reported as > 100 µM (inactive). The GI50 [5] was > 100 µM (inactive) and the GI50 [7] was > 100 µM (inactive).
With COc1ccc(N2C(=O)[C@@H]3[C@@H]4CC(C)CC[C@@H]4c4c([nH]c5ccccc45)[C@@H]3C2=O)cc1 (some centres not stated) the GI50 [2] was 14.7 µM (inactive), the GI50 [3] was 8.3 µM (inactive) and the GI50 [5] was 31.1 µM (inactive). The GI50 [7] was 4.4 µM (inactive).
With CC1=C(C)CC2(CCCCC2=O)[S+]([O-])C1 (configuration not stated) the GI50 [2] was > 100 µM (inactive), the GI50 [3] was > 100 µM (inactive) and the GI50 [5] was > 100 µM (inactive). For the same molecule, the GI50 [7] was > 100 µM (inactive).
With CN(/N=C/c1cccc2cccnc12)c1ccccc1 the GI50 [2] was 85.7 µM (inactive), the GI50 [3] was > 100 µM (inactive) and the GI50 [5] was > 100 µM (inactive). The GI50 [7] was > 100 µM (inactive).
In the case of O=C(Nc1c(Cl)cc([N+](=O)[O-])cc1Cl)C(=O)C(C1OC(=O)c2ccccc21)[N+](=O)[O-] (configuration not stated), the GI50 [3] is reported as > 100 µM (inactive), the GI50 [4] is reported as > 100 µM (inactive) and the GI50 [5] is reported as 92.3 µM (inactive).
NC12CC3CC(C1)CC(Cl)(C3)C2 was tested, and the GI50 [2] was > 100 µM (inactive), the GI50 [3] was > 100 µM (inactive) and the GI50 [4] was > 100 µM (inactive). The GI50 [5] was > 100 µM (inactive).
Cc1ccc(S(=O)(=O)NCC2CCCCC2=O)cc1 (configuration not stated) was tested, and the GI50 [2] was > 100 µM (inactive), the GI50 [3] was > 100 µM (inactive) and the GI50 [5] was 51.9 µM (inactive). For the same molecule, the GI50 [7] was > 100 µM (inactive).
For Cc1noc(/N=C2\C=C(Nc3onc(C)c3C)C(=O)c3ccccc32)c1C, the GI50 [2] was > 100 µM (inactive), the GI50 [3] was > 100 µM (inactive) and the GI50 [4] was > 100 µM (inactive). For the same molecule, the GI50 [5] was 15.3 µM (inactive) and the GI50 [7] was 85.9 µM (inactive).
For O=C(CCN(C(=O)O)S(=O)(=O)c1ccc(NC(=O)c2ccccc2)cc1)NC1CCCCC1, the GI50 [2] was 21.7 µM (inactive), the GI50 [3] was > 100 µM (inactive) and the GI50 [5] was > 100 µM (inactive). For the same molecule, the GI50 [7] was > 100 µM (inactive).
With O=C(CCC(=O)C1CCC/C1=N/O)Nc1ccc(Cl)cc1 (configuration not stated) the GI50 [2] was > 100 µM (inactive), the GI50 [3] was > 100 µM (inactive) and the GI50 [4] was > 100 µM (inactive). The GI50 [7] was > 100 µM (inactive).
With CC(=O)OCC1OC(n2cc([N+](=O)[O-])c(=O)[nH]c2=O)C(OC(C)=O)C(OC(C)=O)C1OC(C)=O (configuration not stated) the GI50 [2] was > 100 µM (inactive), the GI50 [3] was > 100 µM (inactive) and the GI50 [5] was > 100 µM (inactive). The GI50 [7] was 43.2 µM (inactive).
CN1Cc2c(nc(-c3ccccc3)c[n+]2[O-])N(C)C1 was tested, and the GI50 [2] was > 100 µM (inactive), the GI50 [3] was > 100 µM (inactive) and the GI50 [4] was > 100 µM (inactive). For the same molecule, the GI50 [5] was > 100 µM (inactive) and the GI50 [7] was > 100 µM (inactive).
In the case of O=C1C(c2ccc([N+](=O)[O-])cc2)=C(Cl)C(=O)c2c(O)cccc21, the GI50 [1] is reported as 17.1 µM (inactive), the GI50 [2] is reported as 28 µM (inactive) and the GI50 [3] is reported as 10.6 µM (inactive). The GI50 [5] was 7.31 µM (inactive), the GI50 [6] was 26.8 µM (inactive) and the GI50 [7] was 5.05 µM (inactive). The GI50 [8] was 20.9 µM (inactive) and the GI50 [9] was 20.7 µM (inactive).
For CC(C)=CCCC(C)[C@H]1CC(O)C2(C)C3=CCC4C(C)(C)[C@@H](O)CC[C@]4(C)C3=CC[C@]12C (some centres not stated), the GI50 [2] was 1.57 µM (inactive), the GI50 [3] was 8.34 µM (inactive) and the GI50 [4] was 4.34 µM (inactive). The GI50 [5] was 10 µM (inactive) and the GI50 [7] was 13.7 µM (inactive).
